Experiments:
[1] = system: P. aeruginosa strain PAO1; test: Rotating disk reactor (RDR) biofilm test with and without tobramycin; format: cell-based, Pseudomonas aeruginosa; conditions: test compound 100 μg/ml 24 h; for Test Compound, log10 CFU: no tobramycin; for Tobramycin and Test Compound, log10 CFU: then tobramycin 100 μg/ml 2 h
Description: Biofilm formation of P. aeruginosa was evaluated using a standardized biofilm method with a rotating disk reactor (RDR). This method provides a model resembling the formation of biofilms in cystic fibrosis patients. The rotating disk reactor consists of a one-liter glass beaker fitted with a drain spout. The bottom of the vessel contains a magnetically driven rotor with six 1.27 cm diameter coupons constructed from polystyrene. The rotor consists of a star-head magnetic stir bar upon which a disk was affixed to hold the coupons. The vessel with the stir bar was placed on a stir plate and rotated to provide fluid shear. A nutrient solution (AB Trace Medium with 0.3 mM glucose, see Table 1 below for composition) was added through a stopper in the top of the reactor at a flow rate of 5 ml/min. The reactor volume was approximately 180 ml and varied slightly between reactors depending on the placement of the drain spout and the rotational speed of the rotor. At a volume of 180 ml, the residence time of the reactors was 36 minutes. The reactors were operated at room temperature (c.a. 26° C.).
For each test, two RDRs were operated in parallel with one receiving test compound and the other serving as an untreated control. The RDRs were sterilized by autoclave, then filled with sterile medium and inoculated with P. aeruginosa strain PAO1. The reactors were then incubated at room temperature in batch mode (no medium flow) for a period of 24 hours, after which the flow was initiated for a further 24 hour incubation. Test compounds were dissolved in 10 ml ethanol to achieve a concentration of 1.8 mg/ml. After the 48 hours of biofilm development described above, the 10 ml of ethanol containing the test compounds were added to the reactor to achieve a final concentration of approximately 50, 100, or 200 μg/ml. Control reactors received 10 ml of ethanol. The reactors were then incubated for an additional 24 hours in batch (no flow) mode. After this incubation period, the six coupons were removed from each reactor and placed in 12-well polystyrene tissue culture plates with wells containing either 2 ml of a 100 μg/ml tobramycin solution or 2 ml of phosphate-buffered saline (PBS). These plates were incubated at room temperature for two hours. The coupons were then rinsed by three transfers to plates containing 2 ml of fresh PBS. For each two RDR reactors run in parallel, four sets of three coupons were obtained: one set with no test compound treatment and no tobramycin treatment, one set with no test compound treatment and tobramycin treatment, one set treated with a test compound treatment and no tobramycin treatment, and one set treated with a test compound treatment and tobramycin. After rinsing, one coupon of each set of three was stained with a LIVE/DEAD® BacLight™ Bacterial Viability Kit (Molecular Probes, Eugene Oreg.) and imaged using epifluorescent microscopy. The remaining two coupons were placed in 10 ml of PBS and sonicated for five minutes to remove and disperse biofilm cells. The resulting bacterial suspensions were then serially diluted in PBS and plated on tryptic soy agar plates for enumeration of culturable bacteria. The plates were incubated for 24 hours at 37° C. before colony forming units (CFU) were determined.
The results are averages from experiments performed on three separate days for each test compound. The values reported are as log10 CFU.

[2] = system: E. coli laboratory strain JM109; test: Biofilm formation inhibition, crystal violet, E. coli laboratory strain JM109; format: cell-based; conditions: Escherichia coli, read-out: inhibited biofilm formation as compared to the controls
Description: (§1) Biofilm inhibition experiments were conducted using an assay adapted from the reported protocol described in Pratt and Kolter, 1998, Molecular Microbiology, 30: 285-293; Li et al., 2001, J. Bacteriol., 183: 897-908. E. coli clinical strain UTI89 was grown in LB in 96 well plates at room temperature for one or two days without shaking. E. coli laboratory strain JM109 was grown in LB plus 0.2% glucose in 96 well plates at room temperature for one day without shaking. To quantify the biofilm mass, the suspension culture was poured out and the biofilm was washed three times with water. The biofilm was stained with 0.1% crystal violet for 20 minutes. The plates were then washed three times with water. OD reading at 540 nm was measured to quantify the biofilm mass at the bottom of the wells. Then 95% ethanol was added to dissolve the dye at the bottom and on the wall and the OD reading at 540 nm was measured to quantify the total biofilm mass. To study the overall effect of the compounds (3.6 mg/mL in 100% ethanol as stock solution), it was added with the inoculation and a time course of biofilm mass was measured. Appropriate amounts of 100% ethanol were added to each sample to eliminate the effect of solvent. Each condition had 3-4 replicates on each plate and was performed over multiple days.

bacterial invasion = test: Bacterial invasion statement of Example 9; conditions: within 15 minutes of administration
[3] = Bladder concentrations in rats after oral dose; conditions: rat, in vivo; rats; 50 mg/kg oral, single bolus in 50% Labrasol; at 24 hours; read-out: concentration in the bladder
Description: Pharmacokinetic studies of asiatic acid and madecassic acid in rats were performed separately. Asiatic acid and madecassic acid were evaluated at 50 mg/kg (oral). Two animals were assigned to each group. Prior to dosing, a baseline blood sample was taken from each animal. At time zero, asiatic acid and madecassic acid, a single bolus dose in 50% Labrasol (Gattefosse) was given to each animal. Bladders were analyzed at 24 hours. Concentrations of both asiatic acid and madecassic acid in the bladder were approximately 30 μg/g at 24 hours.

[4] = system: E. coli clinical strain UTI89; test: Invasion of E. coli UTI89 into bladder epithelial cells; format: cell-based
Description: The effect of test compounds on bacterial invasion of E. coli clinical strain UTI89 was studied as described in Elsinghorst, et al. 1994, Methods Enzymol, 236:405-420; and Martinez et al., 2000, EMBO J., 19:2803-2812. Epithelial bladder cells were grown in plates. Asiatic acid, corosolic acid, or ursolic acid were added at concentrations of 10 μg/ml, 20 μg/ml, or 40 μg/ml to bacteria and epithelial cells for approximately 5, 15, 30, or 60 minutes with approximately 10^7 CFU of E. coli. Binding was assessed at time zero and invasion was assessed at approximately 5, 15, 30, or 60 minutes from completing the mixture of compound, bacteria, and epithelial cells. As a control ethanol was added to cells to a final concentration of 0.1%. The effect of bacterial viability and bacterial adherence during the infection period was evaluated according to the methods described in Martinez et al., 2000, EMBO J., 19:2803-2812.

[5] = system: E. coli clinical strain UTI89; test: Biofilm formation inhibition, crystal violet, E. coli clinical strain UTI89; format: cell-based; conditions: Escherichia coli, 20 ug/ml, read-out: inhibited biofilm formation
Description: as §1

E. coli UTI89[pCOMGFP] = test: Biofilm pods / intracellular bacterial communities (IBC) in mouse bladders, confocal microscopy; format: in vivo, C3H/HeN mice; conditions: for reduction in biofilm pods or intracellular bacterial communities (IBC) in the bladders of mice as compared to the controls: experiment 1: 40 μg/ml intravesical, 30 min pre-incubation, 10^8 CFU, five hours
Description: The experiment was performed using the procedures described in Justice, S. et al., Differentiation and development pathways of uropathogenic Escherichia coli in urinary tract pathogenesis.PNAS, 2004, 101(5), p. 1333-1338. Briefly, E. coli UTI89[pCOMGFP] was prepared after retrieval from frozen stocks by inoculating in LB medium statically for approximately 20 hours. Cells were harvested and suspended in 1 ml of PBS. Cells were diluted to achieve approximately a 10^8 CFU or 10^7 CFU input into C3H/HeN mice (2 mice per group).
Mice were deprived of water for approximately two hours. In experiment 1, all mice were anesthetized with 0.15 cc ketamine cocktail. In experiment 2, all mice were anesthetized with isofluorane. In experiment 1, urine was dispelled from the bladders and approximately 40 μg/ml of test compound or an appropriate amount of ethanol as control was introduced into the bladders via catheterization of the urethra using a tubing coated tuberculin syringe. 30 minutes was allowed to elapse. In experiment 2, bladders were not pre-incubated with test compounds. Bladders were then expelled and an inoculum of 10^8 CFU (Experiment 1) or 10^7 CFU (Experiment 2) of E. coli containing 40 μg/ml of test compound or equivalent amount of ethanol as controls were introduced into the bladders as indicated above.
In experiment 1 five hours elapsed and in experiment 2 six hours elapsed, and then mice were anesthetized and sacrificed. The bladders were removed, bisected, stretched, and fixed in 3% paraformaldehyde for 1 hour at room temperature. Bladders were then permeabilized in 0.01% Triton/PBS for 10 minutes and counter stained with TOPRO3 (Molecular Probes) for 10 minutes for visualization by confocal microscopy. Bladders were mounted on Prolong antifade (Molecular Probes).

cysB gene = conditions: examples of U.S. patent application Ser. No. 11/085,279; cited from earlier work
[6] = 40 μg/ml, 60 minutes, separate experiments (n=4-7)

## C[C@H]1[C@H](C)CC[C@]2(C(=O)O)CC[C@]3(C)C(=CC[C@@H]4[C@@]5(C)C[C@@H](O)[C@H](O)[C@@](C)(CO)[C@@H]5[C@H](O)C[C@]43C)[C@H]12 [Madecassic acid, madecassic acid]
[1]
  Test Compound, log10 CFU: 7.5 log10 CFU
  Tobramycin and Test Compound, log10 CFU: 5.5 log10 CFU
[2]; JM 109, 5 ug/ml
  inhibition at 5 µg/mL: ~60%
[2]; JM 109, 10 ug/ml
  inhibition at 10 µg/mL: ~75%
Bacterial invasion
  bacterial invasion (in words): significantly reduced bacterial invasion
[3]
  concentration at 24 h: ~30000 ng/g

## C[C@H]1[C@H](C)CC[C@]2(C(=O)O)CC[C@]3(C)C(=CC[C@@H]4[C@@]5(C)C[C@@H](O)[C@H](O)C(C)(C)[C@@H]5CC[C@]43C)[C@H]12 [Corosolic acid, corosolic acid]
[1]
  Test Compound, log10 CFU: 7.3 log10 CFU
  Tobramycin and Test Compound, log10 CFU: 4.2 log10 CFU
[4]; 20 μg/ml, 60 minutes, separate experiments (n=4)
  reduced invasion of E. coli into bladder epithelial cells as compared to the controls: 65%
[4]; 40 μg/ml, 5 minutes, time series, triplicate
  reduced invasion of E. coli into bladder epithelial cells as compared to the controls: 10%
[4]; 40 μg/ml, 15 minutes, time series, triplicate
  reduced invasion of E. coli into bladder epithelial cells as compared to the controls: 70%
[4]; [6]
  reduced invasion of E. coli into bladder epithelial cells as compared to the controls: 90%
[4]; 40 μg/ml, 60 minutes, time series, triplicate
  reduced invasion of E. coli into bladder epithelial cells as compared to the controls: 90%
[5]
  inhibition at 20 µg/mL: ~85%
E. coli UTI89[pCOMGFP]
  reduction in biofilm pods or intracellular bacterial communities (IBC) in the bladders of mice as compared to the controls: 94%
E. coli UTI89[pCOMGFP]; experiment 2: 40 μg/ml with inoculum, no pre-incubation, 10^7 CFU, six hours
  reduction in large biofilm pods or large IBC in the bladders of mice as compared to the controls: ~60%
E. coli UTI89[pCOMGFP]; mouse inoculated with E. coli UTI89 and compound, control shows an IBC (FIG. 2)
  appearance of E. coli in mouse bladder, confocal microscopy image (FIG. 3): small collection of E coli

## C[C@H]1[C@H](C)CC[C@]2(C(=O)O)CC[C@]3(C)C(=CC[C@@H]4[C@@]5(C)CC[C@H](O)C(C)(C)[C@@H]5CC[C@]43C)[C@H]12 [ursolic acid]
cysB gene
  expression of a cysB gene in E. coli: modulate the expression of a cysB gene
[4]; [6]
  reduced invasion of E. coli into bladder epithelial cells as compared to the controls: 76%
E. coli UTI89[pCOMGFP]
  reduction in biofilm pods or intracellular bacterial communities (IBC) in the bladders of mice as compared to the controls: 70%

Source: patent US20060264411A1, “Control of biofilm formation” (priority 2005, published 2006)
